# Values joined by “and” are separate entries in the source; they are usually repeats but may differ in a detail not shown here. Identical values can stand only once. “Also recorded” adds a separate entry of the source.
# How the values were obtained:
# H322 tumor cells = experiment: Caspase 3/7 Glo apoptosis assay, H322; format: cell-based, human
# Method: (§1) The combination of varying concentrations of OSI-906 (30 nM-3 μM) with 3 nM Taxol on the induction of apoptosis at 24 hours post dosing (Caspase GlO™, Promega) was determined for a panel of 5 NSCLC tumor cell lines (H460, H292, H322, H358, and Calu6).
# Measurement of apoptosis: Induction of apoptosis as measured by increased Caspase 3/7 activity was determined using the Caspase 3/7 Glo assay (Promega Corporation, Madison, Wis.). Cell lines were seeded at a density of 3000 cells per well in a 96-well plate. 24 hours after plating cells were dosed with varying concentrations of drug, either as a single agent or in combination. The signal for Caspase 3/7 Glo was determined 24 hours after dosing. The caspase 3/7 activity was normalized to cell number per well, using a parallel plate treated with Cell Titer Glo (Promega Corporation, Madison, Wis.). Signal for each well was normalized using the following formula: Caspase 3/7 Glo luminescence units/Cell Titer Glo fraction of DMSO control. All graphs were generated using PRISM® software (Graphpad Software, San Diego, Calif.).
# H358 tumor cells = experiment: Caspase 3/7 Glo apoptosis assay, H358; format: cell-based, human; conditions: Taxol 3 nM, 24 hours
# Method: as §1
# The effect of varying concentrations of OSI-906 (0, 0.3 nM, 1 μM, 3 μM, and 5 μM) on apoptosis in the presence or absence of Taxol (3 nM) for H292 and H358 NSCLC tumor cell lines. Apoptosis measurements were determined by measuring caspase 3/7 activity (Caspase GlO™, Promega) and were captured 24 hours after dosing.
# (§2) Measurement of apoptosis: Induction of apoptosis as measured by increased Caspase 3/7 activity was determined using the Caspase 3/7 Glo assay (Promega Corporation, Madison, Wis.). Cell lines were seeded at a density of 3000 cells per well in a 96-well plate. 24 hours after plating cells were dosed with varying concentrations of drug, either as a single agent or in combination. The signal for Caspase 3/7 Glo was determined 24 hours after dosing. The caspase 3/7 activity was normalized to cell number per well, using a parallel plate treated with Cell Titer Glo (Promega Corporation, Madison, Wis.). Signal for each well was normalized using the following formula: Caspase 3/7 Glo luminescence units/Cell Titer Glo fraction of DMSO control.
# SK-ES-1 tumor cells [1] = experiment: Cell Titer Glo overall cell growth, SK-ES-1; format: cell-based, human
# Method: Measurement of Cell Proliferation: Cell proliferation was determined using the Cell Titer Glo assay (Promega Corporation, Madison, Wis.). […] Using parallel replicate plates, the signal for Cell Titer Glo was determined 24 hours after dosing.
# MDA-MB-231 cells = experiment: Caspase 3/7 Glo apoptosis assay, MDA-MB-231; format: cell-based, human; conditions: 24 hours
# Method: Apoptosis measurements were captured 24 hours after dosing, and apoptosis was assayed by measurement of caspase 3/7 activity. Measurement of apoptosis: Induction of apoptosis as measured by increased Caspase 3/7 activity was determined using the Caspase 3/7 Glo assay (Promega Corporation, Madison, Wis.). Cell lines were seeded at a density of 3000 cells per well in a 96-well plate. 24 hours after plating cells were dosed with varying concentrations of drug, either as a single agent or in combination. The signal for Caspase 3/7 Glo was determined 24 hours after dosing. The caspase 3/7 activity was normalized to cell number per well, using a parallel plate treated with Cell Titer Glo (Promega Corporation, Madison, Wis.). Signal for each well was normalized using the following formula: Caspase 3/7 Glo luminescence units/Cell Titer Glo fraction of DMSO control.
# H460 tumor cells [2] = experiment: Caspase 3/7 Glo apoptosis assay, H460; format: cell-based, human; conditions: 24 hours
# Method: as §1
# A. Effect of varying concentrations of OSI-906, alone or in the presence of 12 nM Taxol, on apoptosis for H460 tumor cells. Apoptosis was measured 24 hours after dosing and determined by caspase 3/7 activity (Caspase GlO™, Promega). […] The dotted line represents the theoretical expectation for additivity and was calculated using the Bliss model for additivity.
# as §2
# Erk = experiment: Western blotting of Erk phosphorylation, A673; conditions: 24 hour; for MAPK (Erk) pathway activity / activation state, single agent: OSI-906 3 uM, Doxorubicin 500nM or 1 μM
# A673 tumor cells [3] = experiment: Cell Titer Glo overall cell growth, A673; format: cell-based, human; conditions: 5 μM OSI-906, 48 hours, versus Bliss additivity
# Method: A. Effect of varying concentrations of doxorubicin, in the presence and absence of 5 μM OSI-906, on the proliferation of A673 tumor cells. Proliferation data were collected 48 hours after dosing and realized using the Cell Titer Glo™ assay (Promega). The dotted line in the plot represents the calculated theoretical expectation if the combination was additive in nature and was determined using the Bliss model for additivity. […] Measurement of Cell Proliferation: Cell proliferation was determined using the Cell Titer Glo assay (Promega Corporation, Madison, Wis.). Tumor cells were seeded at a density of 3000 cells per well in a 96-well plate. 24 hours after plating cells were dosed with varying concentrations of drug, either as a single agent or in combination. Using parallel replicate plates, the signal for Cell Titer Glo was determined 24 hours after dosing.
# A673 tumor cells [4] = experiment: Caspase 3/7 Glo apoptosis assay, A673; format: cell-based, human; conditions: in the presence of doxorubicin (333 nM or 1 uM), listed as OSI-906
# Method: FIG. 3: OSI-906 synergizes with doxorubicin to inhibit cell growth and survival in A673 ES (Ewing's Sarcoma) tumor cells. A. Effect of varying concentrations of doxorubicin, in the presence and absence of 5 μM OSI-906, on the proliferation of A673 tumor cells. Proliferation data were collected 48 hours after dosing and realized using the Cell Titer Glo™ assay (Promega). The dotted line in the plot represents the calculated theoretical expectation if the combination was additive in nature and was determined using the Bliss model for additivity. B. Effect of varying concentrations of OSI-906 (0, 300 nM, and 1 μM) on the induction of apoptosis for A673 tumor cells, in the presence or absence of 333 nM doxorubicin. Apoptosis was determined by measuring caspase 3/7 activity (Caspase GlO™, Promega), and measurements were captured 48 hours after dosing.
# FIG. 5: OSI-906 has the potential to promote greater synergy with doxorubicin in ES tumor cells than neutralizing IGF-1R antibodies. Effect of varying concentrations of OSI-906 (0, 300 nM, 1 μM, and 3 μM) or the IGF-1R neutralizing antibody α-IR3 (10 ug/ml) on the induction of apoptosis for A673 tumor cells, in the presence or absence of 333 nM or 1 uM doxorubicin. Apoptosis was determined by measuring caspase 3/7 activity (Caspase GlO™, Promega), and measurements were captured 24 hours after dosing.
# MDA-1186 tumor cells = experiment: Caspase 3/7 Glo apoptosis assay, MDA-1186; format: cell-based, human
# Method: The effect of varying concentrations of OSI-906 (0, 0.3 nM, 1 uM, 3 μM, and 5 μM) on apoptosis in the presence or absence of Taxol (10 nM) or cisplatin (50 μM) for the MDA-1186 SCCHN tumor cell line. Apoptosis measurements were determined by measuring caspase 3/7 activity (Caspase Glo, Promega) and were captured 24 and 48 hours after dosing.
# as §2
# IGF-1R [5] = experiment: Proteome Profiler RTK capture array, pIGF-1R in A673; conditions: for phosphorylation of IGF-1R, single agent: OSI-906 3 μM, Doxorubicin 500 nM, MAB391 10 ug/ml
# Method: (§3) Effect of OSI-906 (3 μM), Doxorubicin (500 nM), the combination of OSI-906+ doxorubicin, MAB391 (10 ug/ml), and the combination of MAB391+ doxorubicin on the phosphorylation states for IR and IGF-1R. Phosphorylation of IR and IGF-1R was realized using the Proteome Profiler™ RTK capture Array (R & D Systems).
# (§4) Proteome profiler arrays housing 42 different RTKs were purchased from R&D systems (Minneapolis, Minn.) and processed according to the manufacturer's protocol. RTKs included on the array include: HER1, HER2, HER3, HER4, FGFR1, FGFR2a, FGFR3, FGFR4, IR, IGF-1R, Ax1, Dtk, Mer, HGFR, MSPR, PDGFRα, PDGFRβ, SCFR, Flt-3, M-CSFR, c-Ret, ROR1, ROR2, Tie-1, Tie-2, TrkA, TrkB, TrkC, VEGFR1, VEGFR2, VEGFR3, MuSK, EphA1, EphA2, EphA3, EphA4, EphA6, EphA7, EphB1, EphB2, EphB4, EphB6. This array was used as an RTK capture assay for determining pIGF-1R levels.
# SK-ES-1 tumor cells [6] = experiment: Caspase 3/7 Glo apoptosis assay, SK-ES-1; format: cell-based, human; conditions: in the presence of 1 μM doxorubicin, 24 hours
# Method: Effect of varying concentrations of OSI-906 (0, 300 nM, 1 μM, 3 μM, or 5 μM) on the induction of apoptosis for SK-ES-1 tumor cells, in the presence or absence of 1 μM doxorubicin. Apoptosis was determined by measuring caspase 3/7 activity (Caspase GlO™, Promega), and measurements were captured 24 hours after dosing. Measurement of apoptosis: Induction of apoptosis as measured by increased Caspase 3/7 activity was determined using the Caspase 3/7 Glo assay (Promega Corporation, Madison, Wis.). Cell lines were seeded at a density of 3000 cells per well in a 96-well plate. 24 hours after plating cells were dosed with varying concentrations of drug, either as a single agent or in combination. The signal for Caspase 3/7 Glo was determined 24 hours after dosing. The caspase 3/7 activity was normalized to cell number per well, using a parallel plate treated with Cell Titer Glo (Promega Corporation, Madison, Wis.). Signal for each well was normalized using the following formula: Caspase 3/7 Glo luminescence units/Cell Titer Glo fraction of DMSO control.
# Akt [7] = experiment: Western blotting of Akt phosphorylation, A673; conditions: 24 hour; for Akt pathway activity / activation state, single agent: OSI-906 3 uM, Doxorubicin 500nM or 1 μM
# IR = experiment: Proteome Profiler RTK capture array, pIR in A673; format: cell-based, human; conditions: for phosphorylation of IR, single agent: OSI-906 3 μM, Doxorubicin 500 nM, MAB391 10 ug/ml
# Method: as §3, §4
# H460 tumor cells [8] = experiment: Cell Titer Glo overall cell growth, H460; format: cell-based, human
# Method: B. Effect of varying concentrations of taxol, alone or in the presence of 5 μM OSI-906 on overall cell growth. Overall cell growth was determined by the Cell Titer Glo™ assay (Promega) and measured 72 hours after dosing. The dotted line represents the theoretical expectation for additivity and was calculated using the Bliss model for additivity. Measurement of Cell Proliferation: Cell proliferation was determined using the Cell Titer Glo assay (Promega Corporation, Madison, Wis.). Tumor cells were seeded at a density of 3000 cells per well in a 96-well plate. 24 hours after plating cells were dosed with varying concentrations of drug, either as a single agent or in combination. Using parallel replicate plates, the signal for Cell Titer Glo was determined 24 hours after dosing.
# [9] = tested on: Akt phosphorylation (pAkt-S473); experiment: Western blotting of Akt phosphorylation, MDA-MB-231
# H292 tumor cells = experiment: Caspase 3/7 Glo apoptosis assay, H292; format: cell-based, human; conditions: OSI-906 30 nM-3 μM with 50 uM cisplatin, 24 hours, compared with single agents
# Method: The combination of varying concentrations of OSI-906 (30 nM-3 μM) with 50 uM cisplatin on the induction of apoptosis at 24 hours post dosing (Caspase Glo, Promega) was determined for a panel of 5 NSCLC tumor cell lines (H460, H292, H322, H358, and Calu6). The fold induction in apoptosis greater than the sums achieved by the single agents is noted in the table.
# as §2
# IGF-1R [10] = experiment: RTK capture array, pIGF-1R in H358 cells; conditions: taxol 100 nM, 24 hours
# IGF-1R complex = experiment: phosphorylation of the IGF-1R complex in MDA-1186 (data not shown); format: cell-based, human
# IGF-1R [11] = experiment: RTK capture array, pIGF-1R in H292 cells; format: cell-based, human
# Method: Also shown is the effect of taxol (100 nM) on IGF-1R phosphorylation for H292 and H358 tumor cells. Phosphorylation was captured 24 hours after dosing with taxol and realized using the Proteome Profiler™ RTK capture Array (R & D Systems).
# A. Effect of varying concentrations of taxol on pIGF-1R for H292 tumor cells. pIGF-1R was measured 24 hours after dosing and realized using the proteome profiler RTK capture array (R & D Systems).
# A. H292 NSCLC tumor cells were treated with 30 nM paclitaxel for varying time points, alone or in the presence of 3 μM OSI-906. The phosphorylation of IGF-1R was determined by an RTK capture array, in duplicate (pIGF-1R=phosphorylated IGF-1R).
# as §4
# IGF-1R [12] = experiment: In vivo pharmacodynamic study, pIGF-1R in H292 xenografts; conditions: mice bearing H292 xenografts; 24 mg/kg paclitaxel; 24 hours
# Method: B. Mice bearing H292 xenografts were treated with 24 mg/kg paclitaxel for 24 hours prior to harvesting tumors. Tumors were profiled for pIGF-1R levels using the RTK capture array, in duplicate. Four separate animals were used: Control (Ctrl) A1; Control (Ctrl) A2; Paclitaxel-treated A1; and Paclitaxel-treated A2.
# Proteome profiler arrays housing 42 different RTKs were purchased from R&D systems (Minneapolis, Minn.) and processed according to the manufacturer's protocol. […] This array was used as an RTK capture assay for determining pIGF-1R levels.
# Female athymic nude nu/nu CD-1 mice (6-8 wks, 22-29 g) were obtained from Charles River Laboratories (Wilmington, Mass.). Animals were allowed to acclimate for a minimum of one week prior to initiation of a study. Throughout the studies, animals were allowed sterile rodent chow and water ad libitum, and animals were maintained under specific pathogen free conditions.
# NCI—H292 NSCLC tumor cells were harvested from cell culture flasks during exponential cell growth, washed twice with sterile PBS, counted and resuspended in PBS to a suitable concentration before s.c. implantation on the right flank of female nu/nu CD-1 mice. Tumors were established to 200+/−50 mm in size before randomization into treatment groups. Paclitaxel or cisplatin were administered at the indicated dose, and tumors from treated mice were harvested at 24 hours after dosing. […]
# Akt [13] = experiment: Western blotting of Akt phosphorylation, H292; format: cell-based, human; conditions: H292 in vitro; 30 nM paclitaxel; 2, 6, 24 hours
# Method: H292 cells were treated with 30 nM paclitaxel (in the presence and absence of 3 μM OSI-906), and the phosphorylation state for Akt was determined by Western blotting.
structure (smiles),measurement,setting,value
"CC1(O)CC(c2nc(-c3ccc4ccc(-c5ccccc5)nc4c3)c3c(N)nccn23)C1 (stereo not drawn) [Compound D, cis-3-[8-amino-1-(2-phenyl-quinolin-7-yl)-imidazo[1,5-a]pyrazin-3-yl]-1-methyl-cyclobutanol]","apoptosis gain, combination with taxol","H322 tumor cells; OSI-906 30 nM-3 μM with 3 nM Taxol, 24 hours",> 2 fold
same,"induction of apoptosis, combination with paclitaxel",H322 tumor cells; paclitaxel and OSI-906,synergistic induction of apoptosis
same,synergy for the combination of OSI-906 and taxol (apoptosis),H358 tumor cells,"observed for H292, but not H358"
same,"overall cell growth, combination with doxorubicin",SK-ES-1 tumor cells [1],synergistic promotion of apoptosis and inhibition of overall cell growth
same,"induction in apoptosis (caspase 3/7 activity), combination",MDA-MB-231 cells; 1 μM doxorubicin and 0.3 μM compound D,about 3 fold
same,"apoptosis, single agent",H460 tumor cells [2]; OSI-906 alone,fails to promote apoptosis or significantly inhibit cell growth
same,"apoptosis, combination with taxol","H460 tumor cells [2]; in the presence of 12 nM Taxol, listed as OSI-906",synergistic promotion of apoptosis and inhibition of cell survival; also recorded: increase the pro-apoptotic effects of doxorubicin
same,"Erk activation state, co-treatment with doxorubicin",Erk; OSI-906 3 uM plus doxorubicin,gain in activity can be inhibited upon co-treatment with OSI-906
same,"MAPK (Erk) pathway activity / activation state, single agent",Erk,achieves inhibition of both pathways
same,"overall cell growth, combination with doxorubicin",A673 tumor cells [3],synergistic promotion of apoptosis and inhibition of overall cell growth
same,"apoptosis (caspase 3/7 activity), combination with doxorubicin",A673 tumor cells [4],"synergistic promotion of apoptosis; also recorded: synergistic increase in doxorubicin-mediated apoptosis; also recorded: extent of cooperativity appears to be greater at higher concentrations of OSI-906, i.e. 3 μM, than that achieved maximally by a-IR3; also recorded: synergistic induction of apoptosis"
same,"apoptosis, single agent",MDA-1186 tumor cells; OSI-906 alone,did not achieve significant apoptosis as a single agent
same,"apoptosis, combination with taxol","MDA-1186 tumor cells; Taxol 10 nM, 24 and 48 hours, listed as OSI-906",promoted a dose dependent increase in apoptosis; also recorded: synergistic induction of apoptosis
same,"phosphorylation of IGF-1R, single agent",IGF-1R [5],achieves inhibition for both pIR and pIGF-1R
same,"phosphorylation of IGF-1R, combination with doxorubicin",IGF-1R [5]; with Doxorubicin 500 nM,blocked upon co-treatment with OSI-906
same,"apoptosis (caspase 3/7 activity), combination with doxorubicin",SK-ES-1 tumor cells [6],synergistic promotion of apoptosis
same,"Akt activation state, co-treatment with doxorubicin",Akt [7]; OSI-906 3 uM plus doxorubicin,gain in activity can be inhibited upon co-treatment with OSI-906
same,"Akt pathway activity / activation state, single agent",Akt [7],achieves inhibition of both pathways
same,"phosphorylation of IR, single agent",IR,achieves inhibition for both pIR and pIGF-1R
same,"phosphorylation of IR, combination with doxorubicin",IR; with Doxorubicin 500 nM,blocked upon co-treatment with OSI-906
same,"overall cell growth, combination with taxol","H460 tumor cells [8]; 5 μM OSI-906 with taxol, 72 hours, versus Bliss additivity",greater than additive inhibition of overall cell growth
same,"overall cell growth, single agent",H460 tumor cells [8]; OSI-906 alone,fails to promote apoptosis or significantly inhibit cell growth
same,"Akt phosphorylation (pAkt-S473), combination with doxorubicin",[9]; combination of doxorubicin and Compound D,efficacious at inhibiting the increase in Akt phosphorylation provoked by doxorubicin
same,"increase in apoptosis (apoptosis gain), combination with cisplatin",H292 tumor cells,> 3 fold and > 2 fold
"COc1cccc2c1C(=O)c1c(O)c3c(c(O)c1C2=O)C[C@@](O)(C(=O)CO)C[C@@H]3O[C@H]1C[C@H](N)[C@H](O)[C@H](C)O1 [doxorubicin, reference compound]","induction in apoptosis (caspase 3/7 activity), single agent",MDA-MB-231 cells; doxorubicin alone,only a small induction in apoptosis
same,"MAPK (Erk) pathway activity / activation state, single agent",Erk,increase in the activation states for both Akt and Erk
same,"phosphorylation of IGF-1R, single agent",IGF-1R [5],promotes an upregulation of the phosphorylation state for both IR and IGF-1R
same,"Akt pathway activity / activation state, single agent",Akt [7],increase in the activation states for both Akt and Erk
same,"phosphorylation of IR, single agent",IR,promotes an upregulation of the phosphorylation state for both IR and IGF-1R
same,"Akt phosphorylation (pAkt-S473), single agent",[9]; 24 hours,promotes an increase in Akt phosphorylation
"CC(=O)O[C@H]1C(=O)[C@@]2(C)[C@H]([C@H](OC(=O)c3ccccc3)[C@]3(O)C[C@H](OC(=O)[C@H](O)[C@@H](NC(=O)c4ccccc4)c4ccccc4)C(C)=C1C3(C)C)[C@]1(OC(C)=O)CO[C@@H]1C[C@@H]2O [taxol, paclitaxel]",IGF-1R phosphorylation,IGF-1R [10],Only in H292 tumor cells did taxol promote an increase in IGF-1R phosphorylation
same,phosphorylation of the IGF-1R complex,IGF-1R complex,promote phosphorylation of the IGF-1R complex
same,IGF-1R phosphorylation,"IGF-1R [11]; H292, taxol 100 nM, 24 hours",promote an increase in IGF-1R phosphorylation
same,pIGF-1R over time,"IGF-1R [11]; H292 in vitro, 30 nM paclitaxel, 2 and 6 hours",time-dependent increase in pIGF-1R
same,EC50,"IGF-1R [11]; Homo sapiens, NCI-H292, H292, 24 hours after dosing, read-out: EC50 for promoting phosphorylation of IGF-1R",10 nM
same,pIGF-1R levels in tumors,IGF-1R [12],upregulated
same,pAkt over time,Akt [13],"modest increase in the Akt survival pathway, however this pathway is further driven upon prolonged 6 hour exposure to paclitaxel"

# Reference: patent publication US20090263397A1, “Combination anti-cancer therapy” (priority 2007, published 2009)
